{"source": "paper PMC11696576", "about": "“Next generation thiazolyl ketone inhibitors of cytosolic phospholipase A2 α for targeted cancer therapy” (Nature Communications, 2025)", "key": {"Jurkat E6.1 cells [1]": {"test_system": "Jurkat E6.1 cells", "test": "cell viability, CTG assay, Jurkat E6.1", "assay_type": "cell-based, human", "conditions": "Jurkat cells, 1 µM, VEH; listed as AVX420, 1 µM", "source_text": "Data are the mean ± stdev of 3 biological replicates. […] Data are the mean ± stdev of 3 biological replicates.\n(§1) Bjørn Tore Gjertsen (University of Bergen, Norway). […] The cell lines were not authenticated."}, "Jurkat E6.1 cells [2]": {"test_system": "Jurkat E6.1 cells", "test": "cell death, PI exclusion and flow cytometry, time course (Figure S9b)", "assay_type": "cell-based, human", "set-up": "unit not given here", "conditions": "replicates, listed as AVX420"}, "isolated human PBMCs": {"test_system": "isolated human PBMCs", "test": "eicosanoid release from A23187-stimulated PBMCs (ELISA)", "assay_type": "cell-based", "set-up": "6-Keto PGF1a / 12-HETE: unit not given here", "conditions": "for LTB4 level, PBMCs / PGE2 level, PBMCs / TxB2 level, PBMCs: A23187, individual replicate; for 6-Keto PGF1a: A23187 stimulated; for IC50: Homo sapiens, PBMC, 0.25 h, 30 µM A23187 15 min", "method": "In PBMCs, the calcium ionophore A23187 stimulated the release of PGE2, TXB2, LTB4, 6-keto prostaglandin F1α (PGF1α), and 12-HETE.\nPBMCs were isolated from buffy coats using Lymphoprep as described by the manufacturer ([…] Technologies, Vancouver, Canada). Red blood cells were lysed and removed using RBC lysis buffer (Roche, Basel, Switzerland) and the remaining cells were resuspended in 10 mL of RPMI-1640 supplemented with 5% FBS. The TC20 automated cell counter (BIO-RAD, Hercules, California, USA) was used to count the number of cells and check the viability by staining with trypan blue (0.4%) (NanoEnTek, Waltham, MA, USA). For experiments, 5 × 10^5 cells were seeded in 0.5 mL in 24 well plates with RPMI medium supplemented with 5% FBS, 0.3 mg/mL glutamine, and 0.1 mg/mL gentamicin. Cells were preincubated with inhibitors for 2 h before incubating with 30 µM Ca^2+ ionophore A23187 for 15 min to activate cPLA2α. After incubation, the supernatant was obtained by centrifugation at 5992 × g for 10 min at 4° and stored at −80 °C until assayed for PGE2, LTB4, TxB2, 6-Keto PGF1α, and 12S-HETE using enzyme-linked immunosorbent assays (ELISAs) (Cayman #514435, Cayman #10009292, Cayman #501020, Cayman #15210, and Enzo Lifesciences #ADI-900-050). After an overnight hybridization, the enzymatic conversion of substrate was read at OD420 nm using a Cytation 5 multimode platereader (Biotek Instruments, Winooski, VT, USA). Standard curves fit using 4-parameter logistic regression in myassays.com were used to calculate eicosanoid concentrations."}, "MV-4-11 cells": {"test_system": "MV-4-11 cells", "test": "cell viability, resazurin assay, MV-4-11", "assay_type": "cell-based, human", "conditions": "for cell viability relative to 0 µM = 100 (Figure S7b): MV-4-11, rep1-4, listed as AVX420", "source_text": "as §1\nFigure S7. Sensitivity of cell lines derived from hematological malignancies. a. cell viability expressed as relative light units ( RLU) is plotted for all cell lines in the screen that were de-rived from hematological malignancies. b. corresponding IC50 values calculated by non-linear regression analysis. c. Cell viability assessed by resazurin assays in MV-4-11 and HL-60 cells.\nData were normalized to the vehicle-treated control (100%) and are the mean of 4 biological replicates ±stdev (MV-4-11) and 5 biological replicates ±stdev (HL-60), Non-linear regres- […]"}}, "note": "Where “and” joins values, the source holds several entries; their conditions need not be identical. Equal entries are not always repeated. Where two headings read alike, the source gives them in different places.", "data": [{"smiles": "CCCCCCCOc1ccc(OCC(=O)c2nc(C(=O)OC)cs2)cc1", "note": "[GK420]", "values": [{"measurement": "cell viability (Control = 100)", "setting": "Jurkat E6.1 cells [1]", "result": 21}, {"measurement": "PI Negative (Figure S9b)", "setting": "Jurkat E6.1 cells [2]; 1h", "result": "92 and 90"}, {"measurement": "PI Positive (Figure S9b)", "setting": "Jurkat E6.1 cells [2]; 1h", "result": "8 and 10"}, {"measurement": "PI Negative (Figure S9b)", "setting": "Jurkat E6.1 cells [2]; 2h", "result": "88 and 92"}, {"measurement": "PI Positive (Figure S9b)", "setting": "Jurkat E6.1 cells [2]; 2h", "result": "12 and 8"}, {"measurement": "PI Negative (Figure S9b)", "setting": "Jurkat E6.1 cells [2]; 4h", "result": "94 and 93 and 92"}, {"measurement": "PI Positive (Figure S9b)", "setting": "Jurkat E6.1 cells [2]; 4h", "result": "6 and 7 and 8"}, {"measurement": "PI Negative (Figure S9b)", "setting": "Jurkat E6.1 cells [2]; 8h", "result": "91 (2×) and 87 and 88"}, {"measurement": "PI Positive (Figure S9b)", "setting": "Jurkat E6.1 cells [2]; 8h", "result": "9 (2×) and 13 and 12"}, {"measurement": "PI Negative (Figure S9b)", "setting": "Jurkat E6.1 cells [2]; 12h", "result": "80 and 83 and 82"}, {"measurement": "PI Positive (Figure S9b)", "setting": "Jurkat E6.1 cells [2]; 12h", "result": "20 and 17 and 18"}, {"measurement": "PI Negative (Figure S9b)", "setting": "Jurkat E6.1 cells [2]; 16h", "result": "70 and 75 and 71"}, {"measurement": "PI Positive (Figure S9b)", "setting": "Jurkat E6.1 cells [2]; 16h", "result": "30 and 25 and 29"}, {"measurement": "PI Negative (Figure S9b)", "setting": "Jurkat E6.1 cells [2]; 24h", "result": "65 and 67 and 73"}, {"measurement": "PI Positive (Figure S9b)", "setting": "Jurkat E6.1 cells [2]; 24h", "result": "35 and 33 and 27"}, {"measurement": "LTB4 level, PBMCs", "setting": "isolated human PBMCs; 0.5 µM", "result": "429.9 pg/mL and 749.3 pg/mL and 255.6 pg/mL and 605.5 pg/mL"}, {"measurement": "PGE2 level, PBMCs", "setting": "isolated human PBMCs; 0.5 µM", "result": "169.2 pg/mL and 38.5 pg/mL and 267.8 pg/mL and 309 pg/mL"}, {"measurement": "TxB2 level, PBMCs", "setting": "isolated human PBMCs; 0.5 µM", "result": "8408.2 pg/mL and 1252.3 pg/mL and 13129.8 pg/mL and 13753.8 pg/mL"}, {"measurement": "6-Keto PGF1a", "setting": "isolated human PBMCs; 0.5 µM", "result": "21.6 and 26.4"}, {"measurement": "LTB4 level, PBMCs", "setting": "isolated human PBMCs; 1 µM", "result": "370.9 pg/mL and 289.7 pg/mL and 718.4 pg/mL and 239.1 pg/mL"}, {"measurement": "PGE2 level, PBMCs", "setting": "isolated human PBMCs; 1 µM", "result": "247.2 pg/mL and 134.2 pg/mL and 36.8 pg/mL and 244.2 pg/mL"}, {"measurement": "TxB2 level, PBMCs", "setting": "isolated human PBMCs; 1 µM", "result": "11110.6 pg/mL and 8481.1 pg/mL and 1330.2 pg/mL and 14838.7 pg/mL"}, {"measurement": "6-Keto PGF1a", "setting": "isolated human PBMCs; 1 µM", "result": "16.6 and 27.5"}, {"measurement": "LTB4 level, PBMCs", "setting": "isolated human PBMCs; 2.5 µM", "result": "144.2 pg/mL and 219 pg/mL and 387.5 pg/mL and 190 pg/mL"}, {"measurement": "PGE2 level, PBMCs", "setting": "isolated human PBMCs; 2.5 µM", "result": "238.2 pg/mL and 102.2 pg/mL and 66 pg/mL and 196.8 pg/mL"}, {"measurement": "TxB2 level, PBMCs", "setting": "isolated human PBMCs; 2.5 µM", "result": "7528.6 pg/mL and 7919.2 pg/mL and 1078.1 pg/mL and 10138.3 pg/mL"}, {"measurement": "6-Keto PGF1a", "setting": "isolated human PBMCs; 2.5 µM", "result": "15.1 and 17.9"}, {"measurement": "LTB4 level, PBMCs", "setting": "isolated human PBMCs; 5 µM", "result": "107.5 pg/mL and 125.8 pg/mL and 244.5 pg/mL and 111.7 pg/mL"}, {"measurement": "PGE2 level, PBMCs", "setting": "isolated human PBMCs; 5 µM", "result": "149.4 pg/mL and 71.6 pg/mL and 38.8 pg/mL and 141.2 pg/mL"}, {"measurement": "TxB2 level, PBMCs", "setting": "isolated human PBMCs; 5 µM", "result": "4591 pg/mL and 3235.3 pg/mL and 764.8 pg/mL and 7035.5 pg/mL"}, {"measurement": "6-Keto PGF1a", "setting": "isolated human PBMCs; 5 µM", "result": "16.9 and 21.1"}, {"measurement": "LTB4 level, PBMCs", "setting": "isolated human PBMCs; 10 µM", "result": "64.7 pg/mL and 93.8 pg/mL and 115.3 pg/mL and 64.3 pg/mL"}, {"measurement": "PGE2 level, PBMCs", "setting": "isolated human PBMCs; 10 µM", "result": "129 pg/mL and 52.7 pg/mL and 30.5 pg/mL and 67 pg/mL"}, {"measurement": "TxB2 level, PBMCs", "setting": "isolated human PBMCs; 10 µM", "result": "2621.7 pg/mL and 1488.5 pg/mL and 633.4 pg/mL and 3277.7 pg/mL"}, {"measurement": "IC50", "setting": "isolated human PBMCs; PBMCs, read-out: IC50 LTB4 inhibition", "result": 317, "unit": "nM"}, {"measurement": "IC50", "setting": "isolated human PBMCs; PBMCs, read-out: IC50 PGE2 inhibition", "result": 1100, "unit": "nM"}, {"measurement": "IC50", "setting": "isolated human PBMCs; PBMCs, read-out: IC50 TXB2 inhibition", "result": 2200, "unit": "nM"}, {"measurement": "effect on 6-keto PGF1α and 12-HETE", "setting": "isolated human PBMCs; PBMCs, A23187, IC50 values could not be calculated", "result": "tendency to suppress"}, {"measurement": "IC50", "setting": "MV-4-11 cells; Homo sapiens, MV4-11, resazurin assay", "result": 5700, "unit": "nM"}, {"measurement": "cell viability relative to 0 µM = 100 (Figure S7b)", "setting": "MV-4-11 cells; 0.00306 µM", "result": "107.974 and 94.1556 and 88.3103 and 111.814"}, {"measurement": "cell viability relative to 0 µM = 100 (Figure S7b)", "setting": "MV-4-11 cells; 0.00919 µM", "result": "108.045 and 93.3168 and 91.3448 and 113.05"}, {"measurement": "cell viability relative to 0 µM = 100 (Figure S7b)", "setting": "MV-4-11 cells; 0.02757 µM", "result": "114.954 and 104.137 and 83.3442 and 127.148"}, {"measurement": "cell viability relative to 0 µM = 100 (Figure S7b)", "setting": "MV-4-11 cells; 0.08272 µM", "result": "119.708 and 98.9766 and 68.867 and 129.045"}, {"measurement": "cell viability relative to 0 µM = 100 (Figure S7b)", "setting": "MV-4-11 cells; 0.24815 µM", "result": "113.432 and 105.146 and 76.1961 and 124.847"}, {"measurement": "cell viability relative to 0 µM = 100 (Figure S7b)", "setting": "MV-4-11 cells; 0.74444 µM", "result": "108.976 and 63.5816 and 66.7499 and 99.3411"}, {"measurement": "cell viability relative to 0 µM = 100 (Figure S7b)", "setting": "MV-4-11 cells; 2.23333 µM", "result": "103.119 and 55.0214 and 81.5625 and 89.0387"}, {"measurement": "cell viability relative to 0 µM = 100 (Figure S7b)", "setting": "MV-4-11 cells; 6.7 µM", "result": "80.6879 and 58.6991 and 52.7781 and 45.3319"}, {"measurement": "cell viability relative to 0 µM = 100 (Figure S7b)", "setting": "MV-4-11 cells; 10 µM", "result": "48.2149 and 41.1505 and 41.4878 and 26.408"}, {"measurement": "cell viability relative to 0 µM = 100 (Figure S7b)", "setting": "MV-4-11 cells; 30 µM", "result": "40.7033 and 23.5083 and 29.7689 and 20.683"}]}]}
